Data published in patent publication US20100069854A1, “Elastomeric Devices Containing Chlorhexidine/Fatty Acid Salts Made From Fatty Acids of 12 to 18 Carbons” (priority 2008, published 2010).

Assays:
[1] = Incorporation of chlorhexidine salts into silicone tubing (swelling impregnation, extraction, HPLC); assay type: physicochemical; details: for Salt content in silicone elastomeric medical article: one day, equivalent mass of chlorhexidine base extracted;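 for Salt content in silicone elastomeric medical article: columns differ by chlorhexidine salt concentration in the impregnation solution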
Protocol: Chlorhexidine diacetate, Chlorhexidine dodecanoate and chlorhexidine palmitate were loaded into silicone tubing by first dissolving the chlorhexidine salt in a 90% THF+10% Methanol solution.
Impregnated chlorhexidine was extracted from the tubing by immersing in an excess of THF to fully swell it and then adding an equal volume of water to extract the chlorhexidine salt. The quantity of chlorhexidine was determined by previously enumerated HPLC method. It is reported below for different concentration impregnation solutions in terms of the equivalent mass of chlorhexidine base extracted: […]

[2] = test system: Candida albicans ATCC 10231; experiment: Zone of inhibition assay with impregnated polyurethane foam discs; assay type: cell-based; details: for Zone of inhibition compared with the other salts (in words): impregnated polyurethane foam, after several daily transfers / over the 9 day assay
Protocol: To evaluate antimicrobial properties of polyurethane foam samples infused with the various chlorhexidine/fatty acid salts, a zone of inhibition assay was performed. In this assay, 1.4% (w/v) of chlorhexidine acetate, chlorhexidine caprate, chlorhexidine laurate, chlorhexidine myristate, chlorhexidine palmitate and chlorhexidine stearate solutions in methanol were prepared. A supply of 8 mm discs were punched out of a sheet of polyurethane foam (Rynel medical grade polyurethane foam) with biopsy punches (Miltex Kai). Several discs were placed in each of six 50 ml centrifuge tubes. Approximately 5 ml of each of the different methanol/chlorhexidine/fatty acid salt solutions was added to each respective tube. The discs were centrifuged for 5 minutes to remove any air bubbles and soaked for 1 hr to infuse the foam discs with the respective chlorhexidine/fatty acid salt. Infused discs were transferred to clean centrifuge tubes and vacuum dried at 25° C. for 24 hrs to remove any residual solvents. Initial concentrations of salts, impregnated into the punches, were determined by dissolving the impregnated foams and by high pressure liquid chromatography (HPLC) analysis using an Agilent Eclipse XDB-CN 3u 4.6×150 mm column with initial mobile phase=65% DI water/0.2% trifluoroacetic acid (TFA): 35% Acetonitrile/0.2% TFA. Chlorhexidine absorbance was read at 253 nm and concentration was calculated via a chlorhexidine calibration curve. […] To perform the zone of inhibition assay on the impregnated polyurethane foam discs, agar plates were prepared by mixing 11 g Mueller-Hinton cation-adjusted broth and 1.5 g agarose in 500 ml DI water. The agar was autoclaved for 15 minutes at 121° C., 15 psi. 10 ml of the still hot, liquid agar was pipetted onto petri dishes. The challenge organism, Candida albicans ATCC 10231, was cultivated in Trypticase soy broth, standard microbiological growth medium (TSB). Sterile cotton swabs were dipped into the undiluted culture and the plated agar was fully inoculated with swabs. The 8 mm polyurethane foam discs were transferred daily to a freshly inoculated agar for 9 days. The zone of inhibition (ZOI) was measured using calipers. Actual ZOI was measured by subtracting the diameter of the foam (when wet) from the zone measured and dividing by 2. The results are presented in Table 6, with a graphical representation of the ZOI in FIG. 2;

[3] = Rate of release of chlorhexidine/fatty acid salts from coated polyurethane tubes into DI water; assay type: physicochemical; details: for Cumulative release of the chlorhexidine/fatty acid salts from the coated polyurethane tubes: 1 cm coated tube in DI water, 37° C.; for Time by which approximately all of the salt was released from the coated sample: coated polyurethane tube in DI water
Protocol: A solution of each respective chlorhexidine/fatty acid salt was prepared and used to infuse a sample of elastomeric material. To perform the test, individual samples, 8 cm pieces of polyurethane tube containing a colorant, were surface dip coated in respective solutions of the chlorhexidine/fatty acid salts. The solutions were prepared as follows: 8.6 g of Tecoflex (Noveon, Cleveland, Ohio) was dissolved in 174 g of Tetrahydrofuran and methanol. 5.88 g of chlorhexidine acetate, chlorhexidine laurate, chlorhexidine myristate, chlorhexidine palmitate and chlorhexidine stearate were individually dissolved into the polymer-solvent mixture. The samples were immersed into the solvent-polymer-salt mixture and then dried at room temperature, evaporating the solvent. A polymeric coating was produced on the surface of the tubes. The amounts of chlorhexidine/fatty acid salt adhered per cm of the tube was measured (Table 2) by exhaustively extracting the salt and measuring UV absorbance at 253 nm relative to controls: For each of the samples, the rate of release of chlorhexidine/fatty acid salts into an aqueous solution was determined. To perform the rate of release test, 1 cm from each of the coated polyurethane tubes, were submerged in DeIonized (DI) water and incubated at 37° C. for a period of 28 days to determine the rate of release of the salts from the respective 1 cm samples of coated polyurethane tubing. The water was collected and replaced with fresh water after approximately 2 hours. The water was again collected and replaced with fresh water after the first day and every seven days thereafter. The amount of chlorhexidine/fatty acid salt in the collected water was measured with an Agilent 8453 UV-Vis Diode Array Detector with a manual setup using a cuvette w/path length of 1 cm. Chlorhexidine absorbance was read at 253 nm and concentration was calculated via a calibration curve developed using standards of 1, 5, 10, 20, 30, 35, and 40 μg/mL chlorhexidine acetate in DI Water. The percentage of chlorhexidine/fatty acid salt released from the sample into an aqueous media (percent release) was calculated according to the following equation: Percent release=(cumulative release at that time period/initial content)*100.

[4] = test system: Pseudomonas aeruginosa ATCC 27853; experiment: Basic broth adherence assay on coated polyurethane tubes; assay type: cell-based; details: for Inhibition of adherence / antimicrobial effect against Pseudomonas aeruginosa (in words): coated polyurethane tubes compared to uncoated control
Protocol: The antimicrobial effectiveness of the coated samples was subjected to different durations of DI water extraction by basic broth adherence assay. For each chlorhexidine/fatty acid salt tested, 3 samples of coated tubing were prepared and assayed. To prepare the inoculum, a culture of Pseudomonas aeruginosa ATCC 27853 was used to challenge the coated polyurethane tubes and controls. The negative control used was a length of uncoated polyurethane tube. The challenge microorganism suspension was prepared as follows: approximately three colonies were removed from a secondary working culture plated on Trypticase Soy Agar (TSA) (BD-Falcon) with 5% sheep's blood and added to 10 ml of Trypticase Soy Broth (TSB). The vial was vortexed for approximately 30 seconds and incubated for 4 hours at 37° C. at 100 rpm. Following incubation, the vial was removed and vortexed. The optical density of the organism suspension was read. The inoculum was then diluted in TSB to a concentration of 5×10^4 colony forming units per milliliter (CFU/mL). This concentration was confirmed by the Miles and Misra drop count method.
The basic broth adherence assay was performed in a 96 well micro titer plate. To each well of the micro titer plate containing either a test article or a control, 900 μl of TSB was added. To this, 100 μl of the adjusted inoculum was added (Note: Due to the 1/10 dilution per well, the starting inoculum concentration of each organism was […] for Pseudomonas aeruginosa). The micro titer plates were then sealed via parafilm® around the edges and wrapped in foil to avoid evaporation of liquid and light contact with the samples. The plates were then placed inside a shaker incubator set at 37° C. and 100 rpm for 24 hours. Incubation at 37° C. then continued until the elapse of 7 days, 14 days, and 21 days, respectively, for each of the 3 samples prepared for each chlorhexidine/fatty acid salt.
At the completion of the respective incubation periods, the samples were rinsed, sonicated, the sonicate was plated and adherence was evaluated. More particularly, following incubation, all samples and controls were dip-rinsed twice in phosphate buffered saline (PBS) to remove the surrounding media. After rinsing, test articles were sonicated in micro titer plate wells containing 1 mL of Dey-Engley (DE) neutralizing broth (Difco). The sonication liquid was then serially diluted, and plated onto the surface of DE neutralizing agar. Plates were incubated at 37° C. for 24 to 48 hours and colonies were counted. Recovery counts were recorded as CFU/mL.

[5] = 1% impregnation solution in 90% THF+10% Methanol
[6] = 3% impregnation solution in 90% THF+10% Methanol
[7] = 6% impregnation solution in 90% THF+10% Methanol
[8] = 10% impregnation solution in 90% THF+10% Methanol
[9] = Day 1, daily transfer to fresh agar
[10] = Day 2, daily transfer to fresh agar
[11] = Day 3, daily transfer to fresh agar
[12] = Day 4, daily transfer to fresh agar
[13] = Day 7, daily transfer to fresh agar
[14] = Day 8, daily transfer to fresh agar
[15] = Day 9, daily transfer to fresh agar

SMILES | Salt content in silicone elastomeric medical article [1, 5] [µg/cm] | Salt content in silicone elastomeric medical article [1, 6] [µg/cm] | Salt content in silicone elastomeric medical article [1, 7] [µg/cm] | Salt content in silicone elastomeric medical article [1, 8] [µg/cm] | ZOI produced by impregnated polyurethane foam punches against Candida albicans [2, 9] [mm] | ZOI produced by impregnated polyurethane foam punches against Candida albicans [2, 10] [mm] | ZOI produced by impregnated polyurethane foam punches against Candida albicans [2, 11] [mm] | ZOI produced by impregnated polyurethane foam punches against Candida albicans [2, 12] [mm] | ZOI produced by impregnated polyurethane foam punches against Candida albicans [2, 13] [mm] | ZOI produced by impregnated polyurethane foam punches against Candida albicans [2, 14] [mm] | ZOI produced by impregnated polyurethane foam punches against Candida albicans [2, 15] [mm] | Zone of inhibition compared with the other salts (in words) [2] | Cumulative release of the chlorhexidine/fatty acid salts from the coated polyurethane tubes ([3]; Day 1) [g] | Cumulative release of the chlorhexidine/fatty acid salts from the coated polyurethane tubes ([3]; Day 7) [g] | Cumulative release of the chlorhexidine/fatty acid salts from the coated polyurethane tubes ([3]; Day 14) [g] | Cumulative release of the chlorhexidine/fatty acid salts from the coated polyurethane tubes ([3]; Day 21) [g] | Cumulative release of the chlorhexidine/fatty acid salts from the coated polyurethane tubes ([3]; Day 28) [g] | Time by which approximately all of the salt was released from the coated sample [3] [days] | Log10 reduction of adhered Pseudomonas aeruginosa onto the surface of coated polyurethane tubes ([4]; 7 days) | Log10 reduction of adhered Pseudomonas aeruginosa onto the surface of coated polyurethane tubes ([4]; 14 days) | also measured
CC(=O)O.CC(=O)O.NC(=N\CCCCCC/N=C(N)/N=C(\N)Nc1ccc(Cl)cc1)/N=C(\N)Nc1ccc(Cl)cc1 [Chlorhexidine Acetate, chlorhexidine diacetate, reference compound] | 262 | 395 | 374 | 439 | 12 | 11 | 14 | 8 | 8 | 12 | 12 | zones of inhibition that were smaller | 155 | 222 | 224 | 224 | 224 | ≤ 7 | 5 | 0 | Percent release of the initial salt concentration from the coated sample ([3]; within 1 day (FIG. 1)): approximately 70%; Log10 reduction of adhered Pseudomonas aeruginosa onto the surface of coated polyurethane tubes ([4]; 21 days): 0; Inhibition of adherence / antimicrobial effect against Pseudomonas aeruginosa (in words) ([4]; listed as chlorhexidine acetate): inhibition was not apparent at 14 days or thereafter; Inhibition of adherence / antimicrobial effect against Pseudomonas aeruginosa (in words) ([4]; listed as chlorhexidine diacetate): not able to provide an antimicrobial effect against Pseudomonas aeruginosa after 7 days
CCCCCCCCCCCC(=O)O.NC(=NCCCCCCN=C(N)N=C(N)Nc1ccc(Cl)cc1)N=C(N)Nc1ccc(Cl)cc1 [Chlorhexidine Laurate, chlorhexidine dilaurate] | 249 | 408 | 526 | 614 | 27 | 31 | 32 | 27 | 23 | 31 | 29 | relatively largest ZOI | 62 | 145 | 165 | 167 | 167 | ≤ 14 | 7 | 0 | Absorption into silicone tubing compared with the other salts (in words) ([1]; silicone tubing, 90% THF+10% Methanol): absorbed at much higher concentrations than the other salts; Log10 reduction of adhered Pseudomonas aeruginosa onto the surface of coated polyurethane tubes ([4]; 21 days): 0; Inhibition of adherence / antimicrobial effect against Pseudomonas aeruginosa (in words) [4]: inhibition was not apparent at 14 days or thereafter
